In assay [1] the target is T1, rat-species vanilloid receptor 1 (VR1/TRPV1) (Rattus norvegicus, UniProt O35433).
T1 construct: endogenous in cells; host or cells: primary cells dissociated from rat dorsal root ganglia (DRG)
In words: Functional testing on vanilloid receptor 1 (VR1/TRPV1): FLIPR Ca2+ inflow assay in rat dorsal root ganglia cells (% activation / % inhibition vs capsaicin). The conditions noted are these: for IC50: capsaicin (CAP) stimulus, average; for inhibition at 10 µM: inhibition compared to 10 μM CP (capsaicin); for activation at 10 µM: stimulation compared to 10 μM CP (capsaicin). It is filed as cell-based. The protocol:
Preference may also be given to substituted spiro compounds according to the invention of general formula I which in a FLIPR assay in a concentration of 10 μM display inhibition of the Ca^2+ ion inflow in dorsal root ganglia of rats of at least 30%, preferably of at least 40%, particularly preferably of at least 50%, most particularly preferably of at least 70%, even more preferably of at least 90%, compared to the maximum achievable inhibition of the Ca^2+ ion inflow with capsaicin in a concentration of 10 μM.
In the FLIPR assay, the Ca^2+ inflow is quantified using a Ca^2+-sensitive dye (type Fluo-4, Molecular Probes Europe BV, Leiden, Netherlands) in a fluorescent imaging plate reader (FLIPR, Molecular Devices, Sunnyvale, USA), as described hereinafter.
I. Functional Testing Carried Out on the Vanilloid Receptor 1 (VR1/TRPV1 Receptor)
The agonistic or antagonistic effect of the substances to be tested can be determined on the rat-species vanilloid receptor 1 (VR1/TRPV1) using the following assay. According to this assay, the Ca^2+ inflow is quantified through the receptor channel using a Ca^2+-sensitive dye (type Fluo-4, Molecular Probes Europe BV, Leiden, Netherlands) in a fluorescent imaging plate reader (FLIPR, Molecular Devices, Sunnyvale, USA).
Complete medium: 50 mL HAMS F12 nutrient mixture (Gibco Invitrogen GmbH, Karlsruhe, Germany) with
10% by volume of FCS (foetal calf serum, Gibco Invitrogen GmbH, Karlsruhe, Germany, […]);
2 mM L-glutamine (Sigma, Munich, Germany);
1% by weight of AA solution (antibiotic/antimyotic solution, PAA, Pasching, Austria)
and 25 ng/ml NGF medium (2.5 S, Gibco Invitrogen GmbH, Karlsruhe, Germany)
Cell culture plate: Poly-D-lysine-coated, black 96 well plates having a clear base (96 well black/clear plate, BD Biosciences, Heidelberg, Germany) were additionally coated with laminin (Gibco Invitrogen GmbH, Karlsruhe, Germany), the laminin being diluted with PBS (Ca—Mg-free PBS, Gibco Invitrogen GmbH, Karlsruhe, Germany) to a concentration of 100 μg/mL. Aliquots having a laminin concentration of 100 μg/mL were removed and stored at −20° C. The aliquots were diluted with PBS in a ratio of 1:10 to 10 μg/mL laminin and in each case 50 μL of the solution were pipetted into a recess in the cell culture plate. The cell culture plates were incubated for at least two hours at 37° C., the excess solution was removed by suction-filtration and the recesses were each washed twice with PBS. The coated cell culture plates were stored with excess PBS which was not removed until just before the feeding of the cells.
Preparation of the Cells:
The vertebral column was removed from decapitated rats and placed immediately into cold HBSS buffer (Hank's buffered saline solution, Gibco Invitrogen GmbH, Karlsruhe, Germany), i.e. buffer located in an ice bath, mixed with 1% by volume (percent by volume) of an AA solution (antibiotic/antimyotic solution, PAA, Pasching, Austria). The vertebral column was cut longitudinally and removed together with fasciae from the vertebral canal. Subsequently, the dorsal root ganglia (DRG) were removed and again stored in cold HBSS buffer mixed with 1% by volume of an AA solution. The DRG, from which all blood remnants and spinal nerves had been removed, were transferred in each case to 500 μL of cold type 2 collagenase (PAA, Pasching, Austria) and incubated for 35 minutes at 37° C. After the addition of 2.5% by volume of trypsin (PAA, Pasching, Austria), incubation was continued for 10 minutes at 37° C. After complete incubation, the enzyme solution was carefully pipetted off and 500 μL of complete medium were added to each of the remaining DRG. The DRG were in each case suspended several times, drawn through cannulae No. 1, No. 12 and No. 16 using a syringe and transferred to a 50 mL Falcon tube which was filled up to 15 mL with complete medium. […]

The next assay concerns the target T2, vanilloid receptor (VR1) (Homo sapiens, UniProt Q8NER1).
T2 construct: expressed in transfected cells; host or cells: CHO K1 cells (ECACC), stably transfected
In words: Functional testing on vanilloid receptor (VR1): FLIPR Ca2+ inflow assay in CHO K1 cells stably transfected with the VR1 gene. It is filed as cell-based. The note with it: for inhibition at 10 µM: CHO-K1, inhibition compared to 10 μM CP (capsaicin); for activation at 10 µM: CHO-K1, stimulation compared to 10 μM CP (capsaicin); for IC50: capsaicin (CAP) stimulus, average. The source says:
II. Functional Testing Carried Out on the Vanilloid Receptor (VR1)
The agonistic or antagonistic effect of the substances to be tested can also be determined on the vanilloid receptor (VR1) using the following assay. According to this assay, the Ca^2+ inflow is quantified through the channel using a Ca^2+-sensitive dye (type Fluo-4, Molecular Probes Europe BV, Leiden, Netherlands) in a fluorescent imaging plate reader (FLIPR, Molecular Devices, Sunnyvale, USA).
Chinese hamster ovary cells (CHO K1 cells, European Collection of Cell Cultures (ECACC) United Kingdom) were stably transfected with the VR1 gene. For functional testing, these cells were plated out on poly-D-lysine-coated black 96 well plates having a clear base (BD Biosciences, Heidelberg, Germany) at a density of 25,000 cells/well. The cells were incubated overnight at 37° C. and 5% CO2 in a culture medium (Ham's F12 nutrient mixture, 10% by volume of FCS (foetal calf serum), 18 μg/ml L-proline). The next day the cells were incubated with Fluo-4 (Fluo-4 2 μM, 0.01% by volume of Pluronic F127, Molecular Probes in HBSS (Hank's buffered saline solution), Gibco Invitrogen GmbH, Karlsruhe, Germany) for 30 minutes at 37° C. Subsequently, the plates were washed 3 times with HBSS buffer and after further incubation for 15 minutes at room temperature used for Ca^2+ measurement in a FLIPR assay. The Ca^2+-dependent fluorescence was measured before and after the addition of the substances to be tested (λex wavelength=488 nm, λem=540 nm). Quantification was carried out by measuring the highest fluorescence intensity (FC, Fluorescence Counts) over time.
The FLIPR protocol consists of 2 substance additions. First the compounds to be tested (10 μM) were pipetted onto the cells and the Ca^2+ inflow was compared with the control (capsaicin 10 μM) (% activation based on the Ca^2+ signal after the addition of 10 μM capsaicin). After 5 minutes' incubation, 100 nM of capsaicin were administered and the Ca^2+ inflow was also determined.
Desensitising agonists and antagonists led to suppression of the Ca^2+ inflow. The % inhibition was calculated compared to the maximum achievable inhibition with 10 μM of capsaicin.

Structures are written as SMILES.

T2 sequence (Q8NER1 whole entry): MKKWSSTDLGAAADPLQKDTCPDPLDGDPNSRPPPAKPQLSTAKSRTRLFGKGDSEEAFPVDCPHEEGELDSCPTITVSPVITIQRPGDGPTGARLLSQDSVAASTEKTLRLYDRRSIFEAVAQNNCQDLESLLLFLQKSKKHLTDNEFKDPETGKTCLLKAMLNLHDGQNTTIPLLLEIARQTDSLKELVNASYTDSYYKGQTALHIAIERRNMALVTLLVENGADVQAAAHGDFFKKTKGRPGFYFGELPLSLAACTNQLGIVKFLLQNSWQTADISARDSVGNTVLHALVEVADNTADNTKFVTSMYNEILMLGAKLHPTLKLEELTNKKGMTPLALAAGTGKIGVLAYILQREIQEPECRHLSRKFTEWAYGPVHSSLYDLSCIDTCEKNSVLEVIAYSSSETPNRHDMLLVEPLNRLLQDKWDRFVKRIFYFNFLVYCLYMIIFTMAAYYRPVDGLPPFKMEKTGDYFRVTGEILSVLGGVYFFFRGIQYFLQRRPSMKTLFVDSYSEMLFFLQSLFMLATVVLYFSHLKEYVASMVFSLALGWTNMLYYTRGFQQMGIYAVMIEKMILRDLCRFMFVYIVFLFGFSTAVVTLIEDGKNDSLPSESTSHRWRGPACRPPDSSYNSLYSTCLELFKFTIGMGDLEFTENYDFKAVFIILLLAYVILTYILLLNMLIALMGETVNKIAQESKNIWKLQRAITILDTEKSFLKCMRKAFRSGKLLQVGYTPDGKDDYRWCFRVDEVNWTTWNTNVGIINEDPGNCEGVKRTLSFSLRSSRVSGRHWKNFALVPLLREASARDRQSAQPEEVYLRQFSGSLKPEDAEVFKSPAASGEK
T1 sequence (O35433 whole entry): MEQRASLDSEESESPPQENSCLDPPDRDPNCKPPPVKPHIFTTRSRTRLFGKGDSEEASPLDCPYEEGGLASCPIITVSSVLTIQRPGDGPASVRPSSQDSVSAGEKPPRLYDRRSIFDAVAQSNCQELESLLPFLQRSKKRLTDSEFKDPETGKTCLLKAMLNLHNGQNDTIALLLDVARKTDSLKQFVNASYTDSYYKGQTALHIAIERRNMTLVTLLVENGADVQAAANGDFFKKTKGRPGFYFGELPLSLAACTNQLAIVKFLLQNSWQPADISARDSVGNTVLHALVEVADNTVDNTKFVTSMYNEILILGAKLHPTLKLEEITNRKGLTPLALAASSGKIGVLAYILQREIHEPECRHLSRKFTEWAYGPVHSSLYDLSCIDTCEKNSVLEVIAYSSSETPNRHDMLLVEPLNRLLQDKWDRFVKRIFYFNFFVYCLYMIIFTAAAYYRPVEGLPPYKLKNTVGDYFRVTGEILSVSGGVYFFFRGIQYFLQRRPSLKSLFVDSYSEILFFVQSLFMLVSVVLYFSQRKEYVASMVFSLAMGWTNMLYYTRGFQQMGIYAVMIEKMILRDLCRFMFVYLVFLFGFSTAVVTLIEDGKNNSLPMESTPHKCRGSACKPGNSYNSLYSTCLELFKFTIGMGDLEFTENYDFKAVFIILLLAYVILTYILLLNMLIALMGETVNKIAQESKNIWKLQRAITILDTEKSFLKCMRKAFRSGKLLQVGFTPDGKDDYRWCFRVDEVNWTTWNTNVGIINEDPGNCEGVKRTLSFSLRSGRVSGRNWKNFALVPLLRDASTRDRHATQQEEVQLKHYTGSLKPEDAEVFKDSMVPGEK

As for `CC(C)(C)c1ccc(C(/C=C/c2ccccc2)=C/C(=O)N2CCC3(CC2)CC(c2cccc(F)c2)=NO3)cc1` [Compound 358, (2E,4E)-3-(4-tert-butylphenyl)-1-(3-(3-fluorophenyl)-1-oxa-2,8-diazaspiro[4.5]dec-2-en-8-yl)-5-phenylpenta-2,4-dien-1-one], in assay [1], inhibition was half-maximal at 148 nM (IC50), the inhibition at 10 µM amounted to 95% and the activation at 10 µM was found to be 0%. On vanilloid receptor (VR1), the inhibition at 10 µM turned out to be 41%, the activation at 10 µM came out at 0% and the IC50 came out at 1110 nM.
As to `CC(C)(C)c1ccc(NC(=O)N2CCC3(CC2)CC(c2ccccc2F)=NO3)cc1` [Compound 352, N-(4-tert-butylphenyl)-3-(2-fluorophenyl)-1-oxa-2,8-diazaspiro[4.5]dec-2-ene-8-carboxamide], in assay [1], the inhibition at 10 µM was found to be 95% and the activation at 10 µM turned out to be 7%. Moreover, at vanilloid receptor (VR1), the inhibition at 10 µM is -3% and the activation at 10 µM came out at 2%.
For `COc1cccc(C2=NOC3(CCN(C(=S)Nc4ccc(C(C)(C)C)cc4)CC3)C2)c1` [Compound 278, 3-(3-methoxyphenyl)-1-oxa-2,8-diazaspiro[4.5]dec-2-ene-8-thiocarboxylic acid-(4-tert-butylphenyl)amide], in that order: 88.1%, 0.73%, 28.1% and 0.66%.
The corresponding values for `COc1cccc(C2=NOC3(CCN(C(=O)Nc4ccc(SC)cc4)CC3)C2)c1` [Compound 65, 3-(3-methoxyphenyl)-1-oxa-2,8-diazaspiro[4.5]dec-2-ene-8-carboxylic acid-(4-methylsulphanylphenyl)amide] are 80.5%, 0.08%, -10.8% and -0.07%.
Turning to `CCc1ccc(NC(=O)N2CCC3(CC2)CC(c2ccccc2)=NO3)cc1` [Compound 163, 3-phenyl-1-oxa-2,8-diazaspiro[4.5]dec-2-ene-8-carboxylic acid-(4-ethylphenyl)amide], the results for the inhibition at 10 µM (in assay [1]; at vanilloid receptor (VR1)) were 84.3% and -3.15%, respectively. Moreover, the activation at 10 µM in assay [1] was -0.43%; at vanilloid receptor (VR1), 0.12%.
For `COc1cccc(C2=NOC3(CCN(C(=O)Nc4cccc(F)c4)CC3)C2)c1` [Compound 174, 3-(3-methoxyphenyl)-1-oxa-2,8-diazaspiro[4.5]dec-2-ene-8-carboxylic acid-(3-fluorophenyl)amide], in that order: 47.8%, -25%, -0.28% and 5.9%.
For the molecule `CC(C)c1ccc(NC(=O)N2CCC3(CC2)CC(c2ccc(Cl)cc2)=NO3)cc1` [Compound 79, 3-(4-chlorophenyl)-1-oxa-2,8-diazaspiro[4.5]dec-2-ene-8-carboxylic acid-(4-isopropylphenyl)amide], in assay [1], the inhibition at 10 µM stood at 46.5% and the activation at 10 µM was 0.38%. For the same molecule, on vanilloid receptor (VR1), the inhibition at 10 µM was -17.6% and the activation at 10 µM was -0.35%.
The corresponding values for `CC(C(=O)N1CCC2(CC1)CC(c1cccc(F)c1)=NO2)c1ccc(NS(C)(=O)=O)c(F)c1` (centres unmarked) [Compound 366, N-(2-fluoro-4-(1-(3-(3-fluorophenyl)-1-oxa-2,8-diazaspiro[4.5]dec-2-en-8-yl)-1-oxopropan-2-yl)phenyl)methanesulphonamide] are 29%, 0%, -20% and -1%.
The corresponding values for `CC(C)(C)c1ccc(NC(=O)N2CCC3(CC2)CC(c2cccc(F)c2)=NO3)cc1` [Compound 351, N-(4-tert-butylphenyl)-3-(3-fluorophenyl)-1-oxa-2,8-diazaspiro[4.5]dec-2-ene-8-carboxamide] are 101%, 6%, 83% and 3%.
On to `CC(C)c1ccc(C=CC(=O)N2CCC3(CC2)CC(c2ccccc2)=NO3)cc1` [Compound 325, 3-(4-isopropylphenyl)-1-(3-phenyl-1-oxa-2,8-diazaspiro[4.5]dec-2-en-8-yl)propenone], for which, in assay [1], the IC50 came out at 270 nM, the inhibition at 10 µM was 63% and the activation at 10 µM is -6%. On vanilloid receptor (VR1), the inhibition at 10 µM amounted to 6%, the activation at 10 µM came to 0% and the IC50 turned out to be 875 nM.
With `CC(C)(C)c1ccc(/C=C/C(=O)N2CCC3(CC2)CC(c2ccccc2)=NO3)c(Br)c1` [Compound 368, (E)-3-(2-bromo-4-tert-butylphenyl)-1-(3-phenyl-1-oxa-2,8-diazaspiro[4.5]dec-2-en-8-yl)prop-2-en-1-one], in assay [1], the inhibition at 10 µM was 83% and the activation at 10 µM stood at 0%. Besides, on vanilloid receptor (VR1), the inhibition at 10 µM was 66% and the activation at 10 µM stood at 0%.
For `O=C(Nc1ccc(OC(F)(F)F)cc1)N1CCC2(CC1)CC(c1ccccc1)=NO2` [Compound 245, 3-phenyl-1-oxa-2,8-diazaspiro[4.5]dec-2-ene-8-carboxylic acid-(4-trifluoromethoxyphenyl)amide], the inhibition at 10 µM is 99% in assay [1] and 11% against vanilloid receptor (VR1). In addition, the activation at 10 µM in assay [1] was found to be 2.55%; at vanilloid receptor (VR1), 0.28%.
For `O=C(Nc1ccc(C(F)(F)F)cc1)N1CCC2(CC1)CC(c1cccc(F)c1)=NO2` [Compound 348, 3-(3-fluorophenyl)-N-(4-(trifluoromethyl)phenyl)-1-oxa-2,8-diazaspiro[4.5]dec-2-ene-8-carboxamide], the inhibition at 10 µM in assay [1] was 101%; on vanilloid receptor (VR1) it was 60%. In addition, the activation at 10 µM turned out to be 3% in assay [1] and 0% at vanilloid receptor (VR1).

Values taken from patent US8772307B2, “Substituted spiro compounds and their use for producing pain-relief medicaments” (Gruenenthal GmbH, priority 2005, dated 2014).
